Experimental data reported in patent US7910692B2, “Immunogenic peptides and methods of use” (The United States of America as represented by the …, priority 2006, dated 2011).

What was measured:
[1] = target: T1, HLA-A2 molecules (Homo sapiens, UniProt P04439, D140Y/D185E/D98H/E176V/E277Q/G131W/G231S/I119V/I121R/I166T/I218V/L300P/L318F/N151K/N90K/P208A/P217A/Q86G/Q94H/R138H/R169H/T345S); assay: Peptide binding to HLA-A2: upregulation of HLA-A2 expression on T2 cells, flow cytometry; settings: for binding to HLA-A2 compared with native peptides: all concentrations, 0 to 25 μg/ml (FIG. 1A); for T2 binding, mean fluorescence intensity: T2 cells
T1 construct: expressed in transfected cells; host or cells: T2 cells (provided by Dr. Peter Cresswell)
Description: The primary amino acid sequence of human PAGE4 was analyzed for consensus motifs for novel HLA-A2 binding peptides. Two 10-mer peptides (P16-25 designated as P16 and P59-68 designated as P59) and one 9-mer peptide (P84-92 designated as P84) were identified and evaluated (Table 1). […] For this reason, five different analogues of native peptides were synthesized and were investigated for their binding ability to HLA-A2-positive T2 cells along with the native P16, P59 and P84 peptides. A MUC-1 peptide and a CEA HLA-A3 binding peptide (CAP-7) were used as a positive and negative control, respectively (Tsang et al., J Natl Cancer Inst 1995; 87:982-90).

[2] = system: LNCaP cells; assay: Cold target inhibition assay; type: cell-based, human; settings: peptide-pulsed (12.5 μg/ml) unlabeled T2 cells; LNCaP:T2 1:10; E:T 15:1 (FIG. 5A)
Description: For the results presented in FIG. 5A, ^111In labeled LNCaP cells and unlabeled T2 cells were used at a ratio of 1:10. T2 cells were incubated with or without P16-1 peptide (12.5 μg/ml) in serum-free medium for 2 hours at 37° C. prior to the addition of the T-A-P16-1 cells. For the results presented in FIG. 5B, anti-HLA-A2 antibody (10 μg/ml and 50 μg/ml) or 110 μg/ml of control IgG antibody were added to ^111In labeled LNCaP cells for 1 hour at 37° C. prior to the addition of the T-A-P16-1 cells. Results are expressed in percent specific lysis at effector-to-target ratio of 15:1. Bars=SD. Statistically significant (P<0.05, two tailed t test).
To confirm the specificity and HLA-A2 restriction of CTL cytolysis, LNCaP cells were used as target in a cold target inhibition assay. […] Moreover, to determine whether the lysis was HLA-A2 restricted, antibody blocking experiments were carried out.

[3] = system: T2 cells; assay: 111In release assay: lysis of peptide-pulsed T2 targets by PAGE4-specific T-cell lines; type: cell-based; settings: for % lysis (±SD) by T-A-P16 / % lysis (±SD) by T-B-P16-1: 16-hour 111In release, peptide 12.5 μg/ml, IVS4
Description: Cytotoxic Assay: Cytotoxicity assays were used as described previously (Tsange et al., J Natl Cancer Inst 1995; 87:982-90). A 6-hour or 16-hour ^111In release assay was used to determine T-cell mediated killing. Target cells were labeled with ^111In oxine (Amersham Health, Silver Spring, Md.) for 20 min at room temperature, and used at 3×10^3 cells per well, in 96-well rounded-bottom culture plates. ^111In released was measured by gamma counting. Spontaneous release was determined by incubating the target cells with medium alone, and complete lysis by incubating the target cells with 2.5% Triton X-100. Specific lysis (%)=[(observed release−spontaneous release)/(complete release−spontaneous release)]×100.
To examine the ability of the P16 and P16-1 peptides to activate the PAGE4-specific T-cells, T-A-P16 cells were subsequently analyzed for the ability to lyse peptide-pulsed targets.

[4] = system: T-A-P16 cells; assay: Cytokine production by T-A-P16 cells stimulated with native and agonist P16 peptides (FIG. 2); type: cell-based, human; settings: vs native P16 or P16-2 peptide; 12.5 ul/ml; effector-to-APC 1:3; 24-hour supernatants (FIG. 2)
Description: FIG. 2 is a set for bar graphs illustrating the ability of autologous B cells pulsed with native and agonist P16 peptides to induce IFN-γ, Lymphotactin, Granzyme B, TNF-α and IL-2 production by T cell line derived from the native peptide (T-A-P16). T-A-P16 cells were used as effectors at in vitro stimulation (IVS-4). T cells were stimulated with irradiated autologous B cells pulsed with different PAGE4 analogues at a concentration of 12.5 ul/ml, and an effector-to-APC ratio of 1:3. Twenty-four-hour culture supernatants were collected and screened for the secretion of IFN-γ, Lymphotactin, Granzyme B, TNF-α and IL-2 using ELISA assay.
Detection of Cytokines: Supernatants of T cells stimulated for […] with peptide-pulsed autologous EBV-transformed B cells, in IL-2-free medium at various peptide concentrations, were screened for secretion of IFN-γ using an ELISA kit (BioSource International, Camarillo, Calif.) and lymphotactin using an ELISA assay (36). Granzyme B, TNF-α and IL-2 were determined by using a Cytokines and Chemokines-Multiplex Kit (Meso Scale Discovery, Geitherburg, Md.). The results were expressed in pg/ml.
Studies were then undertaken to examine the ability of the P16, P16-1, P16-2 peptides to activate the T-A-P16 cells, which were generated with the P16 native peptide. […] The P16-1 agonist was thus chosen for further study.

[5] = system: T-B-P16-1 cells; assay: CD107a mobilization assay; type: cell-based, human; settings: T-B-P16-1 cells with T2 cells pulsed with 12.5 μg/ml peptide; 5 hours (FIG. 3)
Description: The expression of CD107a on the cell surface of CD8+ T cells and correlation with cytotoxic activity by PAGE4-specific T-cell line (T-B-P16-1) against P16-1 or P16 pulsed T2 cells. 0.5×10^6 effector cells/ml were incubated (FIG. 3a) alone, (FIG. 3b) with T2 cells without peptide, (FIG. 3c) with T2 cells pulsed with 12.5 μg/ml of P16 peptide, or (FIG. 3d) with T2 cells pulsed with 12.5 μg/ml of P16-1 peptide. Results are expressed in % of CD107a positive and CD8 positive cells. Numbers of the upper right are % of specific lysis±SD.
CD107a mobilization assay: The CD107a mobilization assay was performed as previously described (Rubio et al., Nat Med 2003; 9:1377-82). […] Samples were then fixed and the expression of CD107a on the cell surface of CD8^+ T cells was analyzed by flow cytometry.
In order to determine CTL degranulation which is a requisite process of perforin-granzyme mediated killing by activated CD8+ T cells, CD107a mobilization to the cell surface of CD8+ T cells was examined following activation with P16 or P16-1 peptides in addition to CTL assays. T-B-P16-1 cells were incubated with P16 native or P16-1 agonist peptide-pulsed T2 cells for 5 hours in the presence of monensin and analyzed for CD107a mobilization by flow cytometric analysis (FIG. 3). […]

[6] = target: T2, peptide-HLA-A2 complexes (Homo sapiens, UniProt P04439, D140Y/D185E/D98H/E176V/E277Q/G131W/G231S/I119V/I121R/I166T/I218V/L300P/L318F/N151K/N90K/P208A/P217A/Q86G/Q94H/R138H/R169H/T345S); assay: Stability of peptide-HLA-A2 complexes on T2 cells after brefeldin A block; type: binding; settings: 8-hour observation period; 12.5 μg/ml (FIG. 1B)
T2 construct: expressed in transfected cells; host or cells: T2 cells (provided by Dr. Peter Cresswell)
Description: FIGS. 1A and 1B are line graphs showing the binding of native PAGE4 peptides and their agonist peptides to HLA-A2 molecules. Peptides were analyzed for binding to T2 cell line as described in Example 1. For the results presented in FIG. 1A, peptides were used at concentrations of 0 to 25 μg/ml. P16 peptide (∘), P16-1 (●), P16-2 (▴), P84 (□) and P84-1 (▪), positive control (MUC-1 peptide) (+) and negative control (HLA-A3 binding peptide) (X). Results are expressed in mean fluorescence intensity (MFI). FIG. 1B presents a comparison of the stability of HLA-A2 peptide complexes of PAGE4 native and agonist peptides. T2 cells were incubated overnight with P16 peptide (∘), P16-1 (●), P16-2 (▴), P84 (□) and P84-1 (▪) peptides at a concentration of 12.5 μg/ml and then were washed free of unbound peptide and incubated with brefeldin A to block delivery of new class 1 molecules to the cell surface. At the indicated times, cells were stained for the presence of surface peptide-HLA-A2 complexes. Results are expressed in relative percentage of binding compared with 100% at time 0.
The analogues of P16 were designated P16-1 and P16-2, and the analogue of P84 was designated as P84-1. These peptides bound to HLA-A2 at higher levels than their native peptides. Studies were then conducted to examine the ability of these peptides to bind HLA-A2 at various concentrations. […] Studies were then undertaken to examine the stability of the peptide-MHC complex for the peptides P16, P84, P16-1, P16-2 and P84-1. Each peptide was incubated with T2 cells overnight, the unbound peptides were washed off, and the cells were then incubated with Brefeldin A to block delivery of new class I molecules to the cell surface. Cells were analyzed for the presence of peptide-HLA-A2 complexes at various time points.

P16-1: agonist analogue of P16; amino acids 16 to 25 of SEQ ID NO: 1, X1 glutamine, X2 leucine (QLAPDVVAFV; (16)..(16) Xaa can be Gln or Tyr; listed as Homo sapiens) [Peptide P16-1]
binding to HLA-A2 compared with native peptides [1]: higher levels | decrease in CTL activity of T-A-P16-1 cells against labeled LNCaP cells [2]: 79.6% | % lysis (±SD) by T-A-P16 ([3]; effector T-A-P16, E:T 15:1): 16.7 (0.9) % | % lysis (±SD) by T-A-P16 ([3]; effector T-A-P16, E:T 30:1): 20.4 (1.9) % | lysis of peptide-pulsed T2 cells by T-A-P16 compared with P16-pulsed T2 cells ([3]; effector T-A-P16, two E:T ratios): higher | % lysis (±SD) by T-B-P16-1 ([3]; effector T-B-P16-1, E:T 15:1): 25.8 (0.6) % | % lysis (±SD) by T-B-P16-1 ([3]; effector T-B-P16-1, E:T 30:1): 34.7 (0.04) % | lysis of peptide-pulsed T2 cells by T-B-P16-1 compared with P16-pulsed T2 cells ([3]; effector T-B-P16-1, two E:T ratios): to a greater extent | IFN-γ, lymphotactin, Granzyme B, TNF-α and IL-2 production by T-A-P16 cells [4]: higher levels | CD8+ T cells expressing surface CD107a compared with P16 native peptide [5]: Higher number | stability of peptide-HLA-A2 complexes compared with native peptide complexes [6]: greater

P84-1: analogue of P84; amino acids 84-92 of SEQ ID NO: 1, X6 tyrosine, X7 leucine, X8 valine (YLPPNPKHV; (16)..(16) Xaa can be Gln or Tyr; listed as Homo sapiens) [Peptide P84-1]
binding to HLA-A2 compared with native peptides [1]: higher levels | stability of peptide-HLA-A2 complexes compared with native peptide complexes [6]: more stable

P16-2: analogue of P16; amino acids 16 to 25 of SEQ ID NO: 1, X1 tyrosine, X2 leucine (YLAPDVVAFV; (16)..(16) Xaa can be Gln or Tyr; listed as Homo sapiens) [Peptide P16-2]
binding to HLA-A2 compared with native peptides [1]: higher levels | stability of peptide-HLA-A2 complexes compared with native peptide complexes [6]: more stable

KTPPNPKHA (XXPPNPKHX; (16)..(16) Xaa can be Gln or Tyr; listed as Homo sapiens) [Peptide P84]
binding of native peptides to HLA-A2 molecules in the T2 assay ([1]; T2 assay): bound to HLA-A2 molecules | T2 binding, mean fluorescence intensity ([1]; peptide 25 μg/ml): 270 MFI | T2 binding, fold increase as compared with the negative control ([1]; peptide 25 μg/ml, vs CAP-7 negative control): 1.04 fold

HLFGYSWYK [CAP-7 peptide, reference compound]
T2 binding, mean fluorescence intensity ([1]; peptide 25 μg/ml): 260 MFI
